Measurements: patent US20230310661A1, “OPHTHALMIC DYE” (Vitreq B.V., priority 2020, published 2023)
Like-named read-outs stand apart in the source and are kept apart here.

Columns and labels:
ARPE19 cells = experiment: Staining of dead cells and/or living cells: dye content in ARPE19 cells by spectrophotometry; type: cell-based, human; conditions: 15 minutes staining; for Adead (maximum absorbance for dead cells): ARPE19 cells fixed with 70% ethanol 5 minutes; for Aliving (maximum absorbance for living cells): living ARPE19 cells
ARPE-19 cells [1] = experiment: Toxicity: survival of cells after exposure to dyes; type: cell-based; conditions: for Survival of ARPE-19 cells: 0.1% in PBS for 15 minutes at 37° C.
Procedure: A preferred dye, being either a compound according to the invention or an additional dye as defined above, has a good staining ability for dead cells, a minimal cellular toxicity in the dark, and a minimal cellular toxicity in the strong illumination necessary for surgery.
According to a preferred definition, a low toxicity means that at least 60%, 65%, 70%, 75%, 80%, 85%, 90% or 95% cell viability is retained after incubation in PBS for 15 minutes at 37° C. and 5% CO2, as determined using the methodology of Example 6.

[2] = Staining ability on PVDF filter as ILM model; conditions: for Ability to stain the ILM (comparative statement): PVDF filter as model for the ILM; for Mean intensity of the grey values of stained filter: 30 s contact, scale 255 is white and 0 is black
Source text: Correlation between staining of the filter and observed staining of the ILM in patients (data from (Rodrigues, Penha et al. 2010)) show a good correlation (see FIG. 1). A 96-well filter (MSBVN1210 MultiScreen BV Filter Plate, Merck-Millipore, Darmstadt, Germany) was used as ILM model. The filter material is hydrophilic polyvinylidene difluoride (PVDF). A Collagen Cell Carrier membrane (CCC) (Viscofan, Weinheim, Germany) was used as model for the ERM. Punches of the membrane (5 mm diameter) were fixed to the filter with a hypodermic needle and soaked in PBS for 30 minutes. The PBS was removed by vacuum filtration, and 50 μL of the dye solution was pipetted into the filter well. After 30 s, the dye was removed by vacuum filtration, and membrane and filter were washed three times with PBS. The membrane was removed and put into a 96-well plate for spectrum recording, using a Tecan Spark 20M (Tecan Group Ltd., Männedorf, Switzerland) plate reader. The filter staining of the compounds (6) and (8) according to the invention are shown in FIG. 2 in comparison to that of BBG. […] The intensity of the grey values was measured. For BBG the mean intensity was 201, for compound (6) it was 175, for compound (8) it was 197. On the scale used, 255 is white and 0 is black.

ARPE-19 cells [3] = experiment: Three-step staining (dye, calcein-AM, propidium iodide) with microphotographs; type: cell-based, human; conditions: 0.025% in PBS, room temperature, 15 minutes; 20% ethanol 5 minutes to induce death in some cells; FIG. 3
Procedure: An experiment was carried out with ARPE-19 cells and staining with compound (6).
A three-step staining procedure was used: first the dye was introduced, then calcein-acetoxymethyl ester (calcein-AM), then propidium iodide (PI). Calcein-AM (which is non-fluorescent) is able to penetrate cell membranes and is hydrolyzed by intracellular esterases to calcein, which is fluorescent and which cannot escape through the intact cell membrane. Cells fluorescent for calcein-AM are therefore intact and living cells. Dead cells (cells with a compromised cell membrane) might still hydrolyze calcein-AM, but they are not able to retain the calcein. Cells with compromised cell membranes can take up propidium iodide, a dye which intercalates into DNA and turns fluorescent upon binding.
Cells were grown in 48-well plates. Growth medium was removed and a solution of 20% ethanol was added for 5 minutes in order to induce cell death in some cells. The ethanol solutions were removed. Staining with compound (6) (0.025%) in PBS was carried out at room temperature for 15 minutes. The dye was washed off with PBS. The cells were then exposed to calcein-acetoxymethyl ester (calcein-AM) in PBS for 15 minutes at room temperature. […]

[4] = dye 0.1% w/v in PBS, <0.07 = does not stain
[5] = concentration of the dye 0.025%

| Compound | Adead (maximum absorbance for dead cells) (ARPE19 cells; dye 0.1% w/v in PBS) | Aliving (maximum absorbance for living cells) (ARPE19 cells; [4]) | other results |
| --- | --- | --- | --- |
| CC1=CC(=[N+](C)Cc2cccc(S(=O)(=O)[O-])c2)C=CC1=C(c1ccc(Nc2ccc(OC(C)C)cc2)cc1)c1ccc(N(C)Cc2cccc(S(=O)(=O)O)c2)cc1C [(1)] | 0.3481 | 0.0283 | – |
| CC1=CC(=[N+](C)Cc2cccc(S(=O)(=O)[O-])c2)C=CC1=C(c1ccc(Nc2ccc(OCc3ccccc3)cc2)cc1)c1ccc(N(C)Cc2cccc(S(=O)(=O)O)c2)cc1C [(2)] | 0.2454 | 0.0253 | – |
| CCN(Cc1cccc(S(=O)(=O)O)c1)c1ccc(C(=C2C=CC(=[N+](CC)Cc3cccc(S(=O)(=O)[O-])c3)C=C2C)c2ccc(Nc3ccc(OC(C)C)cc3)cc2)c(C)c1 [(3)] | 0.6387 | 0.0440 | – |
| CCCOc1ccc(Nc2ccc(C(=C3C=CC(=[N+](CC)Cc4cccc(S(=O)(=O)[O-])c4)C=C3C)c3ccc(N(CC)Cc4cccc(S(=O)(=O)O)c4)cc3C)cc2)cc1 [(4)] | 0.8084 | 0.0485 | – |
| CCN(Cc1cccc(S(=O)(=O)O)c1)c1ccc(C(=C2C=CC(=[N+](CC)Cc3cccc(S(=O)(=O)[O-])c3)C=C2C)c2ccc(Nc3ccc(OCc4ccccc4)cc3)cc2)c(C)c1 [(5)] | 0.6734 | 0.0327 | Survival of ARPE-19 cells (ARPE-19 cells [1]): 81%; Survival (ARPE-19 cells [1]; dye concentration 0.025%): 81% |
| CCN(Cc1cccc(S(=O)(=O)O)c1)c1ccc(C(=C2C=CC(=[N+](CC)Cc3cccc(S(=O)(=O)[O-])c3)C=C2C)c2ccc(Nc3ccc(Oc4ccccc4)cc3)cc2)c(C)c1 [(7)] | – | – | Survival of ARPE-19 cells (ARPE-19 cells [1]): 81%; Survival (ARPE-19 cells [1]; dye concentration 0.025%): 81%; Adead (maximum absorbance for dead cells) (ARPE19 cells; [5]): 0.1976; Aliving (maximum absorbance for living cells) (ARPE19 cells; [5]): 0.0216 |
| CCN(Cc1cccc(S(=O)(=O)O)c1)c1ccc(C(=C2C=CC(=[N+](CC)Cc3cccc(S(=O)(=O)[O-])c3)C=C2C)c2ccc(Nc3ccc(Nc4ccccc4)cc3)cc2)c(C)c1 [(8)] | 0.8411 | 0.0629 | Survival of ARPE-19 cells (ARPE-19 cells [1]): 79%; Survival (ARPE-19 cells [1]; dye concentration 0.025%): 79%; Ability to stain the ILM (comparative statement) [2]: increased ability to stain the ILM compared to compound (6); Mean intensity of the grey values of stained filter ([2]; dye 0.005%): 197; Filter staining in comparison to BBG and compound (6) ([2]; dye at 0.005%, comparators at 0.025%, FIG. 2): even stronger staining |
| CCCCN(c1ccc(OCC)cc1)c1ccc(C(=C2C=CC(=[N+](CC)Cc3cccc(S(=O)(=O)[O-])c3)C=C2C)c2ccc(N(CC)Cc3cccc(S(=O)(=O)O)c3)cc2C)cc1 [BBBG] | 0.7941 | 0.1491 | Survival (ARPE-19 cells [1]; dye concentration 0.005%): 67% |
| CCOc1ccc(Nc2ccc(/C(=C3C=C/C(=[N+](/CC)Cc4cccc(S(=O)(=O)[O-])c4)C=C/3C)c3ccc(N(CC)Cc4cccc(S(=O)(=O)[O-])c4)cc3C)cc2)cc1.[Na+] [BBG, Brilliant Blue G] | 0.5651 | 0.0328 | Survival (ARPE-19 cells [1]): 99%; Mean intensity of the grey values of stained filter ([2]; dye 0.025%): 201 |
| CCN(CC)c1ccc(C(=C2C=CC(=[N+](CC)CC)C=C2)c2ccccc2)cc1 [Brilliant Green] | 0.0568 | 0.1088 | – |
| O=S1(=O)OC(c2cc(Br)c(O)c(Br)c2)(c2cc(Br)c(O)c(Br)c2)c2ccccc21 [Bromophenol Blue] | 0.0357 | 0.0059 | – |
| CCN(Cc1cccc(S(=O)(=O)O)c1)c1ccc(C(=C2C=CC(=[N+](CC)Cc3cccc(S(=O)(=O)[O-])c3)C=C2C)c2ccc(Nc3ccc(OC)cc3)cc2)c(C)c1 [Compound (6)] | 0.8755 | 0.0603 | Survival of ARPE-19 cells (ARPE-19 cells [1]): 103%; Survival (ARPE-19 cells [1]; dye concentration 0.025%): 103%; Adead (maximum absorbance for dead cells) (ARPE19 cells; [5]): 0.3630; Aliving (maximum absorbance for living cells) (ARPE19 cells; [5]): 0.0635; Ability to stain the ILM (comparative statement) [2]: increased ability to stain the ILM compared to BBG; Mean intensity of the grey values of stained filter ([2]; dye 0.025%): 175; Filter staining in comparison to BBG ([2]; equal concentrations of 0.025%, FIG. 2): Much stronger staining; Staining of living cells (microscopy) (ARPE-19 cells [3]): does not stain living cells |
| CN(C)c1ccc(C(=C2C=CC(=[N+](C)C)C=C2)c2ccc(N(C)C)cc2)cc1 [Crystal Violet] | 0.4365 | – | – |
| CCOc1ccc(N(CC)c2ccc(C(=C3C=CC(=[N+](CC)Cc4cccc(S(=O)(=O)[O-])c4)C=C3C)c3ccc(N(CC)Cc4cccc(S(=O)(=O)O)c4)cc3C)cc2)cc1 [EBBG] | 0.9066 | 0.0724 | Survival (ARPE-19 cells [1]; dye concentration 0.025%): 93% |
| O=C1OC2(c3ccccc31)c1cc(Br)c(O)c(Br)c1Oc1c2cc(Br)c(O)c1Br [Eosin] | 0.2358 | 0.0362 | – |
| CC1(C)C(/C=C/C=C/C=C/C=C2\N(CCCCS(=O)(=O)O)c3ccc4ccccc4c3C2(C)C)=[N+](CCCCS(=O)(=O)[O-])c2ccc3ccccc3c21 [ICG, indocyanine green] | 1.1751 | 0.0703 | – |
| CCN(Cc1cccc(S(=O)(=O)O)c1)c1ccc(C(=C2C=CC(=[N+](CC)Cc3cccc(S(=O)(=O)O)c3)C=C2)c2ccc(S(=O)(=O)O)cc2)cc1.[Na+].[Na+] [Light Green SF] | 0.0080 | 0.0065 | – |
| CCOc1ccc(N(C)c2ccc(C(=C3C=CC(=[N+](CC)Cc4cccc(S(=O)(=O)[O-])c4)C=C3C)c3ccc(N(CC)Cc4cccc(S(=O)(=O)O)c4)cc3C)cc2)cc1 [MBBG] | 0.6876 | 0.0355 | – |
| CN(C)c1ccc(C(=C2C=CC(=[N+](C)C)C=C2)c2ccccc2)cc1 [Malachite Green] | 0.0068 | 0.0058 | – |
| CN(C)c1ccc(C(=C2C=CC(=[N+](C)C)C=C2)c2ccc([N+](C)(C)C)cc2)cc1.[Cl-].[Cl-] [Methyl Green] | 0.0750 | 0.0489 | – |
| CCCN(c1ccc(OCC)cc1)c1ccc(C(=C2C=CC(=[N+](CC)Cc3cccc(S(=O)(=O)[O-])c3)C=C2C)c2ccc(N(CC)Cc3cccc(S(=O)(=O)O)c3)cc2C)cc1 [PBBG] | 0.7369 | 0.1331 | Survival (ARPE-19 cells [1]; dye concentration 0.005%): 66% |
| Cc1cc(-c2ccc(/N=N/c3c(S(=O)(=O)O)cc4cc(S(=O)(=O)O)cc(N)c4c3O)c(C)c2)ccc1/N=N/c1c(S(=O)(=O)O)cc2cc(S(=O)(=O)O)cc(N)c2c1O [Trypan Blue] | 0.0847 | 0.0135 | – |
| Acid Violet | 0.2077 | 0.0184 | – |
| Aniline Blue | 0.0057 | 0.0080 | – |
| Methyl Violet | 0.8900 | – | – |
| Patent Blue 1 | 0.0113 | 0.0155 | – |
